The source of these data is the supplement of paper PMC10307832.

Assay in all cases: relative viability (nuclei count vs DMSO), 5 days (fraction); higher = more cells survive
Compound in the assay “Sorafenib + Trametinib”: CNC(=O)c1cc(Oc2ccc(NC(=O)Nc3ccc(Cl)c(C(F)(F)F)c3)cc2)ccn1 [Sorafenib] + CC(=O)Nc1cccc(-n2c(=O)n(C3CC3)c(=O)c3c(Nc4ccc(I)cc4F)n(C)c(=O)c(C)c32)c1 [Trametinib] (partner 0.02 µM)
Summed up:
(§1)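 One day after seeding in 1536-well plates, lung cancer cell lines were dosed by pin tool. Dosing was either single-drug or a fixed anchor-drug dose plus five library-drug doses (not always all listed) in √10 steps. After 5 days, nuclei were stained in one fix-and-stain step and counted on 4× images, and relative viability is the nuclei count of treated wells over that of vehicle wells, given as the median of duplicate plates.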

Compound in the assay “Sorafenib + Palbociclib”: CNC(=O)c1cc(Oc2ccc(NC(=O)Nc3ccc(Cl)c(C(F)(F)F)c3)cc2)ccn1 [Sorafenib] + CC(=O)c1c(C)c2cnc(Nc3ccc(N4CCNCC4)cn3)nc2n(C2CCCC2)c1=O [Palbociclib] (partner 0.5 µM)
The essentials: as §1

Compound in the assay “Sorafenib + Foretinib”: CNC(=O)c1cc(Oc2ccc(NC(=O)Nc3ccc(Cl)c(C(F)(F)F)c3)cc2)ccn1 [Sorafenib] + COc1cc2c(Oc3ccc(NC(=O)C4(C(=O)Nc5ccc(F)cc5)CC4)cc3F)ccnc2cc1OCCCN1CCOCC1 [Foretinib] (partner 0.25 µM)
The essentials: as §1

Compound in the assay “Sorafenib + Pictilisib”: CNC(=O)c1cc(Oc2ccc(NC(=O)Nc3ccc(Cl)c(C(F)(F)F)c3)cc2)ccn1 [Sorafenib] + CS(=O)(=O)N1CCN(Cc2cc3nc(-c4cccc5[nH]ncc45)nc(N4CCOCC4)c3s2)CC1 [Pictilisib] (partner 1 µM)
The essentials: as §1

Compound in the assay “Sorafenib + Crizotinib”: CNC(=O)c1cc(Oc2ccc(NC(=O)Nc3ccc(Cl)c(C(F)(F)F)c3)cc2)ccn1 [Sorafenib] + C[C@@H](Oc1cc(-c2cnn(C3CCNCC3)c2)cnc1N)c1c(Cl)ccc(F)c1Cl [Crizotinib] (partner 1 µM)
Summed up: as §1

With LOU-NH91, the relative viability in the assay with Sorafenib + Trametinib (first compound 0.08 µM) turned out to be 0.782; with Sorafenib + Trametinib (first compound 0.253 µM), 0.769; with Sorafenib + Trametinib (first compound 2.53 µM) it was 0.837; with Sorafenib + Trametinib (first compound 8 µM) it was 0.746; with Sorafenib + Palbociclib (first compound 0.08 µM), 0.533; with Sorafenib + Palbociclib (first compound 0.253 µM), 0.52. The relative viability with Sorafenib + Palbociclib (first compound 2.53 µM) is 0.55; with Sorafenib + Palbociclib (first compound 8 µM), 0.533; in the assay with Sorafenib + Foretinib (first compound 0.08 µM), 1.02; with Sorafenib + Foretinib (first compound 0.253 µM), 0.973; with Sorafenib + Foretinib (first compound 2.53 µM) it was 1.08; with Sorafenib + Foretinib (first compound 8 µM), 0.942. Besides, the relative viability with Sorafenib + Pictilisib (first compound 0.08 µM) came to 0.557; with Sorafenib + Pictilisib (first compound 0.253 µM) it was 0.543; in the assay with Sorafenib + Pictilisib (first compound 2.53 µM), 0.585; with Sorafenib + Pictilisib (first compound 8 µM), 0.491; with Sorafenib + Crizotinib (first compound 0.08 µM) it was 0.841; in the assay with Sorafenib + Crizotinib (first compound 0.253 µM), 0.751. For the same cell line, the relative viability was found to be 0.844 with Sorafenib + Crizotinib (first compound 2.53 µM) and 0.654 with Sorafenib + Crizotinib (first compound 8 µM).

H3255: the relative viability was found to be 0.619 with Sorafenib + Trametinib (first compound 0.08 µM); 0.563 with Sorafenib + Trametinib (first compound 0.253 µM); 0.463 with Sorafenib + Trametinib (first compound 2.53 µM); 0.364 in the assay with Sorafenib + Trametinib (first compound 8 µM); 0.33 with Sorafenib + Palbociclib (first compound 0.08 µM); 0.3 with Sorafenib + Palbociclib (first compound 0.253 µM). For the same cell line, the relative viability in the assay with Sorafenib + Palbociclib (first compound 2.53 µM) amounted to 0.306; with Sorafenib + Palbociclib (first compound 8 µM), 0.287; in the assay with Sorafenib + Foretinib (first compound 0.08 µM), 1.06; with Sorafenib + Foretinib (first compound 2.53 µM), 0.829; with Sorafenib + Foretinib (first compound 8 µM) it was 0.567; with Sorafenib + Pictilisib (first compound 0.08 µM) it was 0.525. The relative viability came to 0.434 with Sorafenib + Pictilisib (first compound 0.253 µM); 0.521 in the assay with Sorafenib + Pictilisib (first compound 2.53 µM); 0.305 with Sorafenib + Pictilisib (first compound 8 µM); 1.06 with Sorafenib + Crizotinib (first compound 0.08 µM); 0.809 with Sorafenib + Crizotinib (first compound 0.253 µM); 0.799 in the assay with Sorafenib + Crizotinib (first compound 2.53 µM). In the assay with Sorafenib + Crizotinib (first compound 8 µM), the relative viability stood at 0.62.

Consider NCI-H661, for which the relative viability in the assay with Sorafenib + Trametinib (first compound 0.08 µM) is 0.584; with Sorafenib + Trametinib (first compound 2.53 µM), 0.444; with Sorafenib + Trametinib (first compound 8 µM) it was 0.291; with Sorafenib + Palbociclib (first compound 0.08 µM), 0.4; in the assay with Sorafenib + Palbociclib (first compound 0.253 µM), 0.408; in the assay with Sorafenib + Palbociclib (first compound 2.53 µM) it was 0.385. The relative viability turned out to be 0.289 with Sorafenib + Palbociclib (first compound 8 µM); 1.03 with Sorafenib + Foretinib (first compound 0.08 µM); 0.986 in the assay with Sorafenib + Foretinib (first compound 0.253 µM); 0.701 with Sorafenib + Foretinib (first compound 8 µM); 0.456 in the assay with Sorafenib + Pictilisib (first compound 0.08 µM); 0.397 with Sorafenib + Pictilisib (first compound 0.253 µM). The relative viability worked out at 0.422 with Sorafenib + Pictilisib (first compound 2.53 µM); 0.286 with Sorafenib + Pictilisib (first compound 8 µM); 0.944 with Sorafenib + Crizotinib (first compound 0.08 µM); 0.969 in the assay with Sorafenib + Crizotinib (first compound 0.253 µM); 0.921 with Sorafenib + Crizotinib (first compound 2.53 µM); 0.742 with Sorafenib + Crizotinib (first compound 8 µM).

On to LU99A, for which the relative viability with Sorafenib + Trametinib (first compound 0.08 µM) amounted to 0.509; with Sorafenib + Trametinib (first compound 0.253 µM) it was 0.404; in the assay with Sorafenib + Trametinib (first compound 2.53 µM), 0.252; with Sorafenib + Trametinib (first compound 8 µM), 0.263; with Sorafenib + Palbociclib (first compound 0.08 µM), 0.431; with Sorafenib + Palbociclib (first compound 0.253 µM) it was 0.445. Further, the relative viability with Sorafenib + Palbociclib (first compound 2.53 µM) was 0.39; with Sorafenib + Palbociclib (first compound 8 µM) it was 0.393; in the assay with Sorafenib + Foretinib (first compound 0.08 µM), 0.741; with Sorafenib + Foretinib (first compound 0.253 µM), 0.758; with Sorafenib + Foretinib (first compound 2.53 µM), 0.78; with Sorafenib + Foretinib (first compound 8 µM) it was 0.728. Besides, the relative viability with Sorafenib + Pictilisib (first compound 0.08 µM) was determined as 0.308; in the assay with Sorafenib + Pictilisib (first compound 0.253 µM), 0.3; with Sorafenib + Pictilisib (first compound 2.53 µM) it was 0.347; with Sorafenib + Pictilisib (first compound 8 µM), 0.325; in the assay with Sorafenib + Crizotinib (first compound 0.08 µM) it was 0.541; with Sorafenib + Crizotinib (first compound 0.253 µM), 0.547. The figures for the relative viability with Sorafenib + Crizotinib (first compound 2.53 µM) and with Sorafenib + Crizotinib (first compound 8 µM) were 0.6 and 0.543, respectively.

Regarding LCLC-103H, the relative viability is 0.68 with Sorafenib + Trametinib (first compound 0.08 µM); 0.731 with Sorafenib + Trametinib (first compound 0.253 µM); 0.691 with Sorafenib + Trametinib (first compound 2.53 µM); 0.674 with Sorafenib + Trametinib (first compound 8 µM); 0.415 in the assay with Sorafenib + Palbociclib (first compound 0.08 µM); 0.461 with Sorafenib + Palbociclib (first compound 0.253 µM). The relative viability with Sorafenib + Palbociclib (first compound 2.53 µM) came out at 0.479; with Sorafenib + Palbociclib (first compound 8 µM), 0.52; in the assay with Sorafenib + Foretinib (first compound 0.08 µM) it was 0.793; with Sorafenib + Foretinib (first compound 0.253 µM), 0.794; in the assay with Sorafenib + Foretinib (first compound 2.53 µM) it was 0.813; with Sorafenib + Foretinib (first compound 8 µM), 0.882. The relative viability with Sorafenib + Pictilisib (first compound 0.08 µM) stood at 0.689; with Sorafenib + Pictilisib (first compound 0.253 µM), 0.581; with Sorafenib + Pictilisib (first compound 2.53 µM), 0.698; with Sorafenib + Pictilisib (first compound 8 µM) it was 0.758; with Sorafenib + Crizotinib (first compound 0.08 µM) it was 1.12; in the assay with Sorafenib + Crizotinib (first compound 0.253 µM), 1.14. Also, the results for the relative viability with Sorafenib + Crizotinib (first compound 2.53 µM) and with Sorafenib + Crizotinib (first compound 8 µM) were 1.28 and 1.13, respectively.
